Source: ChEMBL document CHEMBL6177995, “In Silico Discovery of Novel Potent Trace Amine-Associated Receptor TAAR1 Agonists as Promising Drug Candidates for the Treatment of Schizophrenia” (J Med Chem, 2025)

How the values were obtained:
[1] = biological target: T1, Trace amine-associated receptor 1 (Homo sapiens, UniProt Q96RJ0); experiment: Agonist activity at TAAR1 (unknown origin) transfected in HEK293 cells co-transfected with GalphaS-Nluc, Gbeta1/3 and Ggamma1/2/9-mVenus assessed as GalphaS-Gbeta/gamma dissociation by BRET assay; format: functional, cell-based
T1 sequence (Q96RJ0 whole entry): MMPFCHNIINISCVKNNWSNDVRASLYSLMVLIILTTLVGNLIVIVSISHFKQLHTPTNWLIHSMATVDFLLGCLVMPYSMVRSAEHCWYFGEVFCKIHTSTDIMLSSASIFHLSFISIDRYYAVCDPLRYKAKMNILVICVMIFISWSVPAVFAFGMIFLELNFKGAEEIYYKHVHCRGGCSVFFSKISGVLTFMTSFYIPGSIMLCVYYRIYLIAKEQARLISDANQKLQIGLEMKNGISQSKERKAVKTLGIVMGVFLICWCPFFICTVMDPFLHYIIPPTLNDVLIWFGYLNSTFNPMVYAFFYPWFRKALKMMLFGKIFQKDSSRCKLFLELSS

[2] = biological target: T1, Trace amine-associated receptor 1; experiment: Agonist activity at TAAR1 (unknown origin) transfected in HEK293 cells co-transfected with Galphaq-Nluc, Gbeta1/3 and Ggamma1/2/9-mVenus assessed as Galphaq-Gbeta/gamma dissociation by BRET assay; format: functional, cell-based
[3] = Toxicity in male C57BL/6J mouse assessed as catalepsy by measuring extrapyramidal symptoms at 3 mg/kg, ip measured after 30 to 60 mins by bar test; format: organism-based; conditions: in vivo, time 30-60 min

SMILES	EC50 [1]	EC50 [2]	Activity [3]
O=S(=O)(NC[C@@H]1CCCN1)c1cc(F)cc(F)c1	> 10 µM	> 10 µM	–
O=S(=O)(NC[C@@H]1CCCN1)c1ccccc1Br	> 10 µM	> 10 µM	–
O=C(CCCN1CCC(O)(c2ccc(Cl)cc2)CC1)c1ccc(F)cc1 [HALOPERIDOL]	–	–	Toxic
CC(C)CC(N)c1nc2ccccc2[nH]1 (stereo unspecified)	0.1 µM	–	–
COc1ccc2c(c1OC)C(=O)OC2Nc1ccccn1 (stereo unspecified)	0.161 µM	–	–
Cc1ccccc1S(=O)(=O)NC[C@@H]1CCCN1	> 10 µM	> 10 µM	–

More lines, main results first:

EC50 [1]	EC50 [2]	SMILES	Activity [3]
–	0.0416 µM	CC(=O)Nc1ccc(S(=O)(=O)NC[C@@H]2CCCN2)cc1	–
> 10 µM	> 10 µM	O=S(=O)(NC[C@@H]1CCCN1)c1ccccc1	–
> 10 µM	> 10 µM	N#Cc1cccc(S(=O)(=O)NC[C@@H]2CCCN2)c1	–
> 10 µM	> 10 µM	O=[N+]([O-])c1ccc(S(=O)(=O)NC[C@@H]2CCCN2)cc1	–
